In article PMC6954543, “A window-of-opportunity trial of the CXCR1/2 inhibitor reparixin in operable HER-2-negative breast cancer” (Breast Cancer Research : BCR, 2020):

Legend:
[1] = tested on: CXCL8 and other cytokines; assay: Serum cytokine levels (Milliplex/Luminex); assay type: in vivo, human; conditions: day 1 vs day 21
Procedure: The concentrations of interleukin (IL)-1β, IL-6, CXCL8, tumor necrosis factor (TNF)-α, granulocyte macrophage colony stimulating factor (GM-CSF), vascular endothelial growth factor (VEGF), and basic fibroblast growth factor (b-FGF) were measured in sera obtained from patients on days 1 and 21 of the study.
In brief, serum cytokines levels were measured using a method, as previously published. Serum samples were processed and aliquoted within 24 hours for archiving at -80 °C. Samples were analyzed in batch using Milliplex bead kits (EMD Millipore Corporation, Billerica, MA) according to the manufacturer’s protocol with overnight incubations and an additional point added at the low end of the standard curve, and analyzed using a Luminex LX100 (Luminex Corporation, Austin, TX). BioPlex control and analysis software Version 5.0, (BioRad, Hercules, CA) was used.

[2] = tested on: ALDH+ and CD24−/CD44+ CSC; assay: CSC evaluation in core biopsy samples by flow cytometry; assay type: in vivo, human
Procedure: Patients underwent core biopsies at baseline (day − 14 to 0) and at the completion of therapy (day 21). Three to five ≥ 18-gage needle biopsies were taken to measure the changes in CSC populations and pathway markers. If not performed at the completion of treatment, a core biopsy was taken on the day of surgery by the same technique. A sample of the surgically resected tumor tissue was also taken.
CSC populations (CD24^−/CD44^+ and ALDH^+) were measured by flow-cytometry of single-cell suspensions obtained from tumor biopsies (Additional file 1: Supplemental Materials) by using anti-human CD44-APC (clone G44-26) and CD24-FITC (clone ML5, RUO) antibodies (BD Biosciences, Franklin Lakes, NJ), and ALDEFLUOR assay (StemCell Technologies, Inc., Vancouver, BC, Canada), respectively, as previously published.
In the absence of reference data from the literature, signal of activity was defined as a ≥ 20% reduction in CSC (defined by either the ALDH^+− or CD24^−/CD44^+ phenotype) from baseline values as measured by flow cytometry, accompanied by a consistent reduction of the same cell population by IHC. The 20% cutoff was chosen considering only 1 21-day course of reparixin could be administered before surgery. Given the exploratory nature of the study to be conducted in a curable patient population, a sample of 40 patients divided into 2 subgroups of 20 patient each (i.e., ER+ and/or PgR+ and TNBC) was deemed adequate based upon simulations using the Wilson score method to obtain a lower limit for the probability of success. For each subgroup with this sample size, the study will have 80% power to detect a signal of activity (as defined above) observed in ≥ 70% patients as statistically significant at the 0.05 significance level.
To obtain single cell suspension, samples were weighed and observed for appearance, then placed in digestion media and kept at room temperature. The specimens were then rocked for 1 hour at 185 rpm (1.5 hours for surgical specimens), then filtered through 70 µm filter. HBSS+ was added to rinse any residual cells from filter, and the specimens were centrifuged 350xg for 5 minutes at 4 °C. For RBC lysis, cells were resuspended in sterile cell culture grade water, and after 20 seconds, 10XPBS was added. The specimens were then centrifuged at 350xg for 5 minutes at 4 °C. Supernatant was removed. The rest of the specimen was then filtered with 40 µm sterile cell strainer. Cell concentration was measured using Invitrogen Countess.

CXCR1 = CXCR1 expression on tumor cells by IHC; assay type: in vivo, human; conditions: largest proportion at levels 4 and 3 at baseline; level 3 and 2 or lower at day 21
Procedure: (§1) All IHC analyses and scoring for extent (0 to 4) and intensity (0 to 3) were performed at the Houston Memorial Hermann Pathology laboratory as previously described. After antigen retrieval (Tris-Cl, pH 9.0), paraffin-embedded sections of sample tumors were incubated for 1 h at room temperature with the following antibodies: anti-human CXCR1 (rabbit polyclonal to CXCR1 - C-terminal, ab137351; Abcam, Cambridge, MA), anti-human CD31 (clone JC70A, #IS610; Dako, Glostrup, Denmark), anti-human p62 (clone SQSTM1/p62, # 5114; Cell Signaling), anti-human AKT (rabbit polyclonal to pan-AKT, # ab8805; Abcam), anti-human FAK (clone pY861, #44-626G; Invitrogen, Qiagen, Carlsbad, CA), anti-human phospho-AKT (clone Ser473 (D9E), #4060; Cell Signaling), anti-human phospho-FAK (clone Y397, #ab4803; Abcam), and anti-human LC3B (clone D11, #3868; Cell Signaling). For the evaluation of extent, the following semi-quantitative score method (0 to 4) was used: 0, no positive cells; 1, 1–25%; 2, 26–50%; 3, 51–75%; and 4, 76–100%.

[3] = tested on: metastatic HER-2-negative BC; parameters: method as in PMID 28539464; conditions: in combination with weekly paclitaxel, cited from earlier work
[4] = Safety of oral reparixin in window-of-opportunity trial (TEAEs, ANC); assay type: in vivo, human
Text: In this single-arm, monotherapy trial (NCT01861054), female patients aged ≥ 18 years with HER-2-negative operable breast cancer (with a clinical diameter of ≥ 2 cm) that were not candidates for neoadjuvant therapy were recruited. The protocol was amended later to allow inclusion of patients with HER-2-negative operable breast cancer with a clinical diameter of > 1 cm, not eligible for neoadjuvant treatment. Patients needed to have previously untreated, histologically proven (per local investigator assessment) ER+ and/or PgR+ or ER−/PgR− breast cancer (i.e., triple-negative BC (TNBC)) with adequate organ function.
Patients were requested to take reparixin, an investigational orally available CXCR1/2 inhibitor, as two immediate-release 500-mg oral tablets every 6 to 8 h (every 8 h on the days of PK sampling) with food (a light meal or snack), for 21 consecutive days before surgery.
Descriptive statistics were used to summarize safety variables (i.e., adverse events, physical examination, vital signs, ECG, laboratory data, concomitant medications).

P62 = assay: p62 expression on tumor cells by IHC; assay type: in vivo, human; conditions: IHC score 0 to 4
Procedure: as §1

P-AKT = P-AKT staining of core biopsies by IHC; assay type: in vivo, human; conditions: day 21 (16/20 at baseline)
Procedure: as §1

[5] = tested on: human BC cell lines and xenografts; parameters: method as in PMID 20051626; conditions: single agent and in combination with chemotherapy; cited from earlier work

In the case of `CC(C)Cc1ccc([C@@H](C)C(=O)NS(C)(=O)=O)cc1` [reparixin], the “other cytokines (IL-1β, IL-6, TNF-α, GM-CSF, VEGF, b-FGF), change” value [1] is reported as “No statistically significant changes”, the “patients with decrease in ALDH+ cells not accompanied by reduction of CD24−/CD44+ cells” value [2] is reported as 2 patients and the “patients with decrease in CD24−/CD44+ CSC not paralleled by decrease in ALDH+ CSC” value [2] is reported as 6 patients. The “patients without ALDH+ CSC at baseline in whom ALDH+ CSCs were detected at day 21” value ([2]; core biopsy) was 5/9, the “patients without CD24−/CD44+ CSC at baseline in whom CD24−/CD44+ CSCs were detected at day 21” value ([2]; core biopsy) was 6/6 and the “CXCR1 positivity, extent and intensity, change at day 21” value (CXCR1) was “decrease”. The “long-lasting CR” value ([3]; 27 evaluable patients) was 2, the response rate ([3]; 27 evaluable patients) was 30% and the “gastrointestinal disorders, share of all TEAEs” value ([3]; all grade ≤ 2) was 39%. For the same molecule, the “Grade 3 treatment-related TEAE, share of all reports” value [3] was 2.7%, the “patients who experienced ≥ 1 TEAE related to the study drug” value ([4]; 1000 mg t.i.d. oral, 21 days) was “Ten of 20” and the “TEAEs leading to discontinuation” value ([4]; 1000 mg t.i.d. oral, 21 days, 20 patients) was “no treatment-emergent adverse events (TEAEs) leading to discontinuation”. For the same molecule, the “delay of surgery due to study treatment” value ([4]; 20 patients) was “No patients had to delay surgery”, the serious adverse reactions ([4]; 20 patients) was “no serious adverse reactions” and the “neutropenia / decrease in absolute neutrophil count (ANC)” value ([4]; ANC at weekly intervals, 10/20 patients) was “neither neutropenia of any grade nor any sustained decrease in ANC”. For the same molecule, the “grade of TEAEs related to the study drug” value ([4]; all related TEAEs) was at most 2 grade, the “TEAE grade 1 fatigue” value ([4]; of 20 patients) was 8 patients and the TEAE nausea ([4]; of 20 patients) was 5 patients. The “TEAE related to study drug: fatigue” value ([4]; of 20 patients) was 4 patients, the “TEAE related to study drug: flatulence” value ([4]; of 20 patients) was 2 patients and the “TEAE related to study drug: headache” value ([4]; of 20 patients) was 2 patients. For the same molecule, the “TEAE related to study drug: nausea” value ([4]; of 20 patients) was 2 patients, the “serious TEAE” value ([4]; of 20 patients, unrelated to the study drug) was 1 patient and the “P62 extent (percentage of positive cells), change baseline to day 21” value (P62) was “decreased from level 4 to level 3 or lower in the majority of patients”. The “patients with value of 0 for P-AKT, extent and intensity” value (P-AKT) was 11/15 and the “metastatic spread of human BC cells and CSC (ALDH+ and CD24−/CD44+) content” value [5] was “reduced”.
